# Reference: patent US6790824B1, “Cytokines having neurotrophic activity” (Biopharm Gesellschaft zur biotechnologischen Entwicklung …, priority 1997, dated 2004)
# Key:
# Type in all cases: cell-based
# [1] = tested on: chick ciliary ganglionic (CG) neurons; test: Survival of embryonic chick ciliary ganglionic (CG) neurons, 24 h, counting of surviving neurons; settings: for relative potency of TGF-β isoforms in the synergism with GDNF: not shown; for CG neuron survival with further addition of TGF-β: TGF-β 2.5 ng/ml, CNTF non-saturating, OSM, LIF, IL-6 at 10 ng/ml; for support of CG neuron survival by the single cytokine: at 10 ng/ml, without TGF-β
# Protocol: (§1) Embryonic chick ciliary (CG), dorsal root (DRG), and sympathetic (SG) ganglia at embryonic day(s) (E) 8, 10, and 12, were dissected, freed from nerve roots and connective tissue and collected in CME. Ganglia were incubated in trypsin (ICN), washed and dissociated by trituration using fire-polished Pasteur pipettes. Cultures were set up in 96-well microtiter plates (Costar, A/2), precoated with poly-L-ornithine and laminin at a density of 1,200-1,500 cells/well in DMEM supplemented with N1 additives, 0.25% BSA, and 0.1% PSN (DME/N1) and incubated at 37° C. in a 5% CO2 incubator.
# (§2) At appropriate times (CG: 24 h, DRG: 48 h, SG: 72 h) cultures were fixed by addition of 2.5% glutardialdehyde in phosphate buffered saline (PBS). Numbers of surviving neurons were determined by direct counting of 30% of the surface area using phase contrast microscopy.
# Phosphatidylinositol-specific phospholipase C (PIPLC) is an enzyme that specifically cleaves glycosyl-phosphatidylinositol (GPI) linkages. Embryonic chick ciliary ganglionic neurons (E8) were isolated and seeded as described before. Neurons were incubated for 1 h at 37° C. with 1) 100 mU PIPLC or II) 100 mU PIPLC+2 ng/ml TGFβ or III) without enzyme and then growth factors were added. The number of surviving neurons was determined 24 h later.
# [2] = tested on: embryonic chicken dorsal root ganglia (DRG) neurons; test: Survival of dissociated embryonic chick dorsal root ganglia (DRG) neurons, 48 h, counting of surviving neurons; settings: for effect on DRG neuron survival when added together with GDF-5: factor at saturating concentration plus GDF-5 20 ng/ml, E8, 48 h
# Protocol: Dissociated cultures of embryonic chicken dorsal root ganglia (DRG) were generated as described in details by Krieglstein and Unsicker (Neurochem. Res., 21(7) (1996) 843-850). Briefly, DRGs from white Leghorn chick embryos (day 8) were dissected in Ca^2+-Mg^2+ free Hanks' balanced salt solution. After incubation in 0.08% trypsin for 15 min ganglia were dissociated by trituration. Cells were seeded in polyomithin-laminin coated 96-well microtiter plates (A/2 Costar) at a density of 1,200 cells/well. Growth factors were applied at the time of plating in a final volume of […] Dulbecco's Modified Eagle's Medium supplemented with 0.25% bovine serum albumin, N1 additives and 100 U/ml penicillin. As a positive control, nerve growth factor (NGF) was used at the saturating concentration of 5 ng/ml. After 48 h of incubation at 37° C. in a humidified atmosphere containing 5% CO2, cultures were fixed with 2.5% glutaraldehyde. Neuronal cells were identified by their phase-bright and neurite-bearing morphologies and counted within 30% of the total surface area using phase contrast microscopy. In the first set of experiments we tested the survival promoting effect of several growth factors of the bone morphogenetic protein family.
# as §1, §2
# Dissociated cultures of embryonic chicken dorsal root ganglia (DRGs) were generated as described in details by Krieglstein and Unsicker (Dev. Brain. Rees. 93 (1996) 10-17). Briefly, DRGs were dissected in Ca^2+-Mg^2+ free Hank's balanced salt solution (CMF). After incubation in 0.08% trypsin (BioWhittaker) for 15 min, ganglia were dissociated by gentle trituration using fire-polished Pasteur pipettes. Cells in suspension (neuron/non-neuron ratio 1:2) were seeded in polyomithin-laminin coated 96-well microtiter plates (A/2 Costar) at a density of 1,200 cells/well. Growth factors were applied at the time of plating in a final volume of 50 μl Dulbecco's Modified Eagle's Medium supplemented with 0.25% bovine serum albumin, N1 additives (Bottenstein et al., Exp. Cell Res. 125 (1980) 183-190) and 100 U/ml penicillin. As a positive control, nerve growth factor (NGF) was used at the saturating concentration of 10 ng/ml. After 48 h of incubation at 37° C. in a humidified atmosphere containing 5% CO2, cultures were fixed with 2.5% glutaraldehyde in phosphate buffered saline (PBS). Neuronal cells were identified by their phase-bright and neurite-bearing morphologies and counted within 30% of the total surface area using phase contrast microscopy. All experiments were performed in at least triplicate in two independent experiments. Data are presented as mean±SEM. Statistical comparisons were made with student's double t-test, ANOVA and MicrocalOrigin software. Differences were considered statistically significant at *P<0.05, **P<0.01, **P<0.001.
# [3] = tested on: chick sympathetic ganglionic (SG) neurons; test: Survival of embryonic chick sympathetic ganglionic (SG) neurons, 72 h, counting of surviving neurons; settings: E8, serum-free, factor added by itself
# Protocol: as §1, §2
# [4] = tested on: dopaminergic neurons in the ventral midbrain (mesencephalic cultures E14/DIV8); test: Survival of TH-immunoreactive neurons in mesencephalic cultures (E14/DIV8) treated with FGF-2; settings: FGF-2 10 ng/ml, 8 days in culture
# Protocol: FIG. 12 depicts the ffect of neutralizing endogenous TGF-β in mesencephalic neuron cul-tures. Numbers of surviving TH-immunoreactive neurons of mesencephalic cultures (E14/DIV8) after 8 days in culture treated with FGF-2 (10 ng/ml), medium only (control), in presence or absence of neutralizing antibodies to TGF-β1/-β2/-β3 (10 μg/ml). Data are given as mean±SEM (n=3), P-values are ***P<0.001 for increased survival as compared with control cultures and +P<0.05 or +++P<0.001 for decreased survival following antibody treatment.
# Fibroblast growth factor (FGF)-2 is known to act as a neurotrophic factor for dopaminergic neurons in the ventral midbrain. […] As TGF-β is known to be a product of astroglial cells, it was tested whether TGF-β-neutralizing antibodies can abolish the neurotrophic effect of FGF-2 on cultured neurons derived from the embryonic midbrain floor.
# [5] = tested on: rat embryonic mesencephalic dopaminergic neurons (E14); test: Survival of rat embryonic mesencephalic dopaminergic neurons, count of tyrosine hydroxylase (TH) immunoreactive neurons after 8 days; settings: GDNF 10 ng/ml, TGF-β3 2 ng/ml, 8 days in culture
# Protocol: FIG. 8 depicts the survival promoting effect of GDNF on rat embryonic mesencephalic dopaminergic neurons (E14) is dependent on the presence of TGF-β. Dissociated cultures were treated with GDNF (10 ng/ml), with GDNF in the presence of anti-TGF-β1, -β2, -β3 (10 μg/ml), with TGF-β3 (2 ng/ml) or without any growth factor added (control) for 8 days in culture. Numbers of dopaminergic neurons were determined by counting the numbers of tyrosine hydroxylase (TH) immunoreactive neurons.
# [6] = PIPLC 0.1 U/ml prior to plating
substance,measurement,setting,value
"Phosphatidylinositol-specific phospholipase C [PIPLC, reference compound]",effect of PIPLC pretreatment on the survival promoting effect of CNTF,[1]; [6],effectively reduced the survival promoting effect of CNTF
same,effect of PIPLC pretreatment on the survival promoting effect of FGF-2,[1]; [6],without affecting the survival promoting effect of FGF-2
same,effect of PIPLC pretreatment on the survival promoting effect of GDNF with TGF-β,[1]; [6],significantly reduced the survival promoting effect of GDNF in its combination with TGF-β
same,effect of PIPLC pretreatment in the presence of TGF-β on the survival promoting effect of GDNF,[1]; PIPLC pretreatment with 2 ng/ml TGF-β1,the survival promoting effect of GDNF was maintained
TGF-β1: isoform of TGF-β,"DRG neuron survival, single factor in serum-free medium","[2]; E8, serum-free, factor added by itself",virtually no survival promoting effect
same,effect on DRG neuron survival when added together with GDF-5,[2],synergistic or additive effects
same,relative potency of TGF-β isoforms in the synergism with GDNF,[1],equipotent
same,"SG neuron survival, single factor in serum-free medium",[3],virtually no survival promoting effect
TGF-β2: isoform of TGF-β,relative potency of TGF-β isoforms in the synergism with GDNF,[1],equipotent
TGF-β3: isoform of TGF-β,effect on DRG neuron survival when added together with GDF-5,[2],synergistic or additive effects
same,relative potency of TGF-β isoforms in the synergism with GDNF,[1],equipotent
epidermal growth factor [EGF],effect on DRG neuron survival when added together with GDF-5,[2],synergistic or additive effects
fibroblast growth factor-2 [FGF-2],effect on DRG neuron survival when added together with GDF-5,[2],synergistic or additive effects
same,increase in survival of the cells compared to the negative control (medium alone),[4],1.7 fold
interleukin-6 [IL-6],CG neuron survival with further addition of TGF-β,[1],did not increase the effects of these cytokines beyond background levels
same,support of CG neuron survival by the single cytokine,[1],did not support CG neurons
leukemia inhibiting factor [LIF],CG neuron survival with further addition of TGF-β,[1],did not increase the effects of these cytokines beyond background levels
same,support of CG neuron survival by the single cytokine,[1],did not support CG neurons
transforming growth factor beta [TGF-β],survival of dopaminergic neurons relative to untreated control cultures,[5],200%
same,EC50 of the synergistic survival effect,"[1]; factor titrated in combination with 2 ng/ml of the other factor (GDNF/TGF-β), serum-free",0.06 ng/mL
same,"CG neuron survival, single factor in fully-defined medium","[1]; serum-free, each at the saturating amount of 2 ng/ml",only marginal survival promoting effects
transforming growth factor-a [TGF-α],effect on DRG neuron survival when added together with GDF-5,[2],synergistic or additive effects
